Experimental data published in patent US9174998B2, “(6S,9aS)-N-benzyl-6-[(4-hydroxyphenyl)methyl]-4,7-dioxo-8-({6-[3-(piperazin-1-yl)azetidin-1-yl]pyridin-2-yl}methyl)-2-(prop-2-en-1-yl)-octahydro-1H-pyrazino[2,1-c][1,2,4]triazine-1-carboxamide compound” (Eisai R&D Management Co., Ltd., priority 2013, dated 2015).
Values after ≈ are worked out from the molar mass of the structure shown. Where two headings read alike, the source gives them in different places.

Tests used:
Wnt signal = assay: Detection of Wnt signal (TOPglow luciferase reporter, LiCl-stimulated); format: cell-based; conditions: Homo sapiens; HEK293 clone carrying pNeo-TOP reporter; LiCl stimulation; luciferase luminescence; read-out: Test Example 1 IC50 (concentration required for inhibiting the Wnt signal activity by 50%)
Description: pcDNA3.1(+) (invitrogen) was cleaved with restriction enzymes BglII and NotI, and an adapter BEHKS having a sequence shown below (containing restriction enzyme sites BglII, EcoRI, HindIII, KpnI, SacI and NotI) was inserted thereinto, thereby producing a plasmid pNeo-HKS.
Subsequently, a fragment having a length of about 2700 bp (containing a Wnt-responsive sequence and a luciferase gene), which was prepared by cleaving from a TOPglow plasmid contained in a TOPglow/FOPglow TCF Reporter Kit (upstate Catalog#17-366) with restriction enzymes HindIII and KpnI, was inserted between HindIII and KpnI in pNeo-HKS, thereby producing a plasmid pNeo-TOP. The plasmid pNeo-TOP was introduced into human fetus-derived renal cell strain HEK293, then a compound was selected using G418, and then a cell clone strain was established by a limiting dilution method. The cell clone strain was subjected to a Wnt signal detection test.
The cell clone strain was subcultured in a D-MEM glucose-rich culture medium (Wako Pure Chemical Industries, Ltd.) containing 10% FBS, and cells in a growth phase were used in the test. Cells were collected using trypsin-EDTA, the number of the cells was counted, and then the cells were suspended in a D-MEM glucose-rich culture medium containing 10% FBS so that the number of cells became 2×10^5 cells/mL. The cell suspension was added to a 96-well cell culture plate (Greiner Bio-One Co., Ltd., product number: 655083) in an amount of 0.1 mL/well and then cultured overnight in a 5% CO2 incubator (37° C.). After the culturing, a substance to be tested, which was dissolved in DMSO, was diluted with a D-MEM glucose-rich culture medium containing 10% of FBS and 80 mM of LiCl to produce a sample solution. The sample solution (0.1 mL) was added to each well and then cultured in a 5% CO2 incubator (37° C.) […]. Six hours after the addition of the sample solution, a supernatant was removed from each well, and then 50 μL of Bright-Glo™ Luciferase substrate (Promega, product number: E2620) was added thereto. The plate was put on a plate mixer for several seconds, and then the emission of light from each well was measured using a EnVision™ Multilabel plate reader (PerkinElmer Co., Ltd.). The Wnt signal activation rate (%) of each well was determined, and a concentration (IC50) which is required for inhibiting the Wnt signal activity of a substance of interest by 50% was calculated, wherein the luminosity of a well to which a sample solution was not added and LiCl was added was defined as a 100% Wnt signal activity and the luminosity of a well to which either of a sample solution or LiCl was not added was defined as a 0% Wnt signal activity.

[1] = Evaluation of metabolic stability; format: in vitro ADME, human; conditions: 0.2 mg/mL HLM, 0.1 μM test substance, 15 minutes at 37° C., with vs without NADPH production
Description: A test substance was dissolved in DMSO so that the concentration of the resultant solution became 20 mM, and the solution was diluted with DMSO so that the concentration of the resultant solution became 1 mM. The metabolic stability of the test substance was evaluated using a human liver microsome (HLM) in which human liver was pooled. An assay buffer solution contained 0.2 mg/mL of HLM, a 0.1 M of phosphate potassium buffer solution (pH 7.4), 0.1 mM of EDTA, 0.33 mM of NADP+, 8 mM of glucose-6-phosphate, 0.1 U/mL of glucose-6-phosphate dehydrogenase, 6 mM of MgCl2, 0.1 μM of a test substance (final concentration in DMSO: 0.01%) in 0.15 mL of the final incubation volume. Fifteen minutes after the initiation of the reaction at 37° C., 0.15 mL of a acetonitrile/methanol mixed solution (7:3, by volume) was added to the solution to terminate the reaction. After centrifugation, the resultant supernatant was analyzed by LC-MSMS, peak areas were compared under the presence or absence of the production of NADPH, and the residual ratio of the test substance was calculated.

[2] = Evaluation of solubility (DMSO stock into PBS, HPLC-UV); format: physicochemical; conditions: Dulbecco's phosphate-buffered saline pH 7, room temperature, about 15 minutes shaking, values greater than 200 μM regarded as 200 μM, read-out: Test Example 3 solubility
Description: To 0.25 mL of a test solution a mentioned below was added 2.5 μL of a DMSO solution having a compound concentration of 20 mM. The resultant solution was shaken at room temperature for about 15 minutes (the conditions for the shaking are mentioned below). Subsequently, a supernatant was collected by a suction filtration under a reduced pressure. A DMSO solution having a compound concentration of 200 μM was used as a standard solution, and the concentration of a compound in a filtrate which was quantified by a HPLC-UV method was employed as a solubility (rounded off to the whole number). In this evaluation, since a value 200 μM became the upper limit operationally, all of quantification values greater than 200 μM were regarded as 200 μM.
Test solution: GIBCO (registered trade name) Dulbecco's phosphate-buffered saline (pH 7, Life Technologies Corporation)
Conditions for shaking: a microplate shaker N-704 (Nissinrika Corporation), speed 6

[3] = PAMPA test (parallel artificial membrane permeability assay); format: in vitro ADME; conditions: phosphate buffer pH 6.8, about 200 μM, about 5 hours, room temperature, read-out: Test Example 4 membrane permeation coefficient Pe
Description: A test solution (see below) was stirred while shaking at room temperature for about 5 hours using a 96-well PAMPA plate (BD Biosciences) in which a lipid had been precoated onto a polyvinylidene fluoride (PVDF) film to evaluate the membrane permeation coefficient Pe (cm/s) of each compound dissolved in the test solution (concentration: about 200 μM) upon the transport of the compound from a donor side to an acceptor side through a lipid membrane. The Pe value was calculated in accordance with equations 1 and 2, and the concentration of the compound on the donor side and the acceptor side was measured by a HPLC-UV method. In 0.3 mL of the test solution on the donor side is contained about 1% (v/v) of DMSO, since 3 μL of a DMSO solution containing the compound at a concentration of 20 mM was added to the test solution.
Test solution: a phosphate buffer solution having a pH value of 6.8 (90 mM of phosphate, 48 mM of NaCl, 5.4 mM of KCl)
Conditions for stirring: a multishaker MS-300 (AS ONE Corporation), 350 rpm
[formula] CD(t): compound concentration in donor well at time t CA(t): compound concentration in acceptor well at time t VD: donor well volume (0.3 mL) VA: acceptor well volume (0.2 mL) A: filter area (0.3 cm^2)

[4] = aqueous buffer, kinetic from dmso stock

| IC50 (Wnt signal) | Test Example 2 residual ratio of the test substance [1] | solubility [2] | solubility [2, 4] | Papp [3] | Structure (SMILES) |
| --- | --- | --- | --- | --- | --- |
| 470 nM | 63% | 200 µM (≈ 139 µg/mL) |  |  | C=CCN1CC(=O)N2[C@@H](Cc3ccc(O)cc3)C(=O)N(Cc3cccc(N4CC(N5CCN(C)CC5)C4)n3)C[C@@H]2N1C(=O)NCc1ccccc1 [Example 29, (6S,9aS)-N-Benzyl-6-((4-hydroxyphenyl)methyl)-8-((6-(3-(4-methylpiperazin-1-yl)azetidin-1-yl)pyridin-2-yl)methyl)-4,7-dioxo-2-(prop-2-en-1-yl)-octahydro-1H-pyrazino[2,1-c][1,2,4]triazine-1-carboxamide] |
| 270 nM | 69% |  | 197 µM (≈ 144 µg/mL) | 0.39 ×10⁻⁶ cm/s | C=CCN1CC(=O)N2[C@@H](Cc3c(F)cc(O)cc3F)C(=O)N(Cc3cccc(N4CC(N5CCN(C)CC5)C4)n3)C[C@@H]2N1C(=O)NCc1ccccc1 [Example 14, (6S,9aS)-N-Benzyl-6-((2,6-difluoro-4-hydroxyphenyl)methyl)-8-((6-(3-(4-methylpiperazin-1-yl)azetidin-1-yl)pyridin-2-yl)methyl)-4,7-dioxo-2-(prop-2-en-1-yl)-octahydro-1H-pyrazino[2,1-c][1,2,4]triazine-1-carboxamide] |
| 330 nM | 0.6% |  | 122 µM (≈ 70.6 µg/mL) | 0.85 ×10⁻⁶ cm/s | C[C@H]1C2N(C(=O)CN(C)N2C(=O)NCc2ccccc2)[C@@H](Cc2ccc(O)cc2)C(=O)N1Cc1cccc2cccnc12 (stereo partly drawn) [Comparative Example 2, (6S,9S)-N-Benzyl-6-(4-hydroxybenzyl)-2,9-dimethyl-4,7-dioxo-8-(quinolin-8-ylmethyl)octahydro-1H-pyrazino[2,1-c][1,2,4]triazine-1-carboxamide, reference compound] |
| 130 nM | 22% |  | 181 µM (≈ 137 µg/mL) | 2.25 ×10⁻⁶ cm/s | C=CCN1CC(=O)N2[C@@H](Cc3ccc(O)cc3F)C(=O)N(Cc3cccc(N4CC(N(C)CCN5CCOCC5)C4)n3)C[C@@H]2N1C(=O)NCc1ccccc1 [Reference Example 5, (6S,9aS)-N-Benzyl-6-((2-fluoro-4-hydroxyphenyl)methyl)-8-((6-(3-(methyl(2-(morpholin-4-yl)ethyl)amino)azetidin-1-yl)pyridin-2-yl)methyl)-4,7-dioxo-2-(prop-2-en-1-yl)-octahydro-1H-pyrazino[2,1-c][1,2,4]triazine-1-carboxamide] |
| 60 nM | 44% |  | 199 µM (≈ 144 µg/mL) | 2.03 ×10⁻⁶ cm/s | C=CCN1CC(=O)N2[C@@H](Cc3ccc(O)cc3F)C(=O)N(Cc3cccc(N4CC(N5CCN(C)[C@@H](C)C5)C4)n3)C[C@@H]2N1C(=O)NCc1ccccc1 [Example 4, (6S,9aS)-N-Benzyl-8-((6-(3-((3S)-3,4-dimethylpiperazin-1-yl)azetidin-1-yl)pyridin-2-yl)methyl)-6-((2-fluoro-4-hydroxyphenyl)methyl)-4,7-dioxo-2-(prop-2-en-1-yl)-octahydro-1H-pyrazino[2,1-c][1,2,4]triazine-1-carboxamide] |
| 63 nM | 23% | 200 µM (≈ 148 µg/mL) |  | 1.47 ×10⁻⁶ cm/s | C=CCN1CC(=O)N2[C@@H](Cc3ccc(O)cc3F)C(=O)N(Cc3cccc(N4CC(N5CCN(CC)[C@H](C)C5)C4)n3)C[C@@H]2N1C(=O)NCc1ccccc1 [Example 21, (6S,9aS)-N-Benzyl-8-((6-(3-((3R)-4-ethyl-3-methylpiperazin-1-yl)azetidin-1-yl)pyridin-2-yl)methyl)-6-((2-fluoro-4-hydroxyphenyl)methyl)-4,7-dioxo-2-(prop-2-en-1-yl)-octahydro-1H-pyrazino[2,1-c][1,2,4]triazine-1-carboxamide] |
| 400 nM | 57% |  | 199 µM (≈ 141 µg/mL) | 1.04 ×10⁻⁶ cm/s | C=CCN1CC(=O)N2[C@@H](Cc3ccc(O)cc3)C(=O)N(Cc3cccc(N4CC(N5CCN(C)[C@@H](C)C5)C4)n3)C[C@@H]2N1C(=O)NCc1ccccc1 [Example 27, (6S,9aS)-N-Benzyl-8-((6-(3-((3S)-3,4-dimethylpiperazin-1-yl)azetidin-1-yl)pyridin-2-yl)methyl)-6-((4-hydroxyphenyl)methyl)-4,7-dioxo-2-(prop-2-en-1-yl)-octahydro-1H-pyrazino[2,1-c][1,2,4]triazine-1-carboxamide] |
| 230 nM | 30% | 200 µM (≈ 144 µg/mL) |  | 0.91 ×10⁻⁶ cm/s | C=CCN1CC(=O)N2C(CN(Cc3cccc(N4CC(N5CCN(CC)[C@H](C)C5)C4)n3)C(=O)[C@@H]2Cc2ccc(O)cc2)N1C(=O)NCc1ccccc1 (stereo partly drawn) [Example 19, (6S,9aS)-N-Benzyl-8-((6-3-((3R)-4-ethyl-3-methylpiperazin-1-yl)azetidin-1-yl)pyridin-2-yl)methyl-6-((4-hydroxyphenyl)methyl)-4,7-dioxo-2-(prop-2-en-1-yl)-octahydro-1H-pyrazino[2,1-c][1,2,4]triazine-1-carboxamide] |
| 23200 nM | 52.9% |  | 97 µM (≈ 67.2 µg/mL) | 1.34 ×10⁻⁶ cm/s | C=CCN1CC(=O)N2[C@@H](Cc3ccc(O)cc3)C(=O)N(Cc3cccnc3N3CCC(N4CCCC4)CC3)C[C@@H]2N1C(=O)NCc1ccccc1 [Comparative Example 1, (6S,9aS)-N-Benzyl-6-(4-hydroxybenzyl)-4,7-dioxo-8-((2-(4-(pyrrolidin-1-yl)piperidin-1-yl)pyridin-3-yl)methyl)-2-(prop-2-en-1-yl)-octahydro-1H-pyrazino[2,1-c][1,2,4]triazine-1-carboxamide, reference compound] |
